{
  "source": "patent US9814747B2",
  "about": "“Methods for inhibiting HIV-1 activity by inhibitory mechanisms of extracts of Guaiacum officinale L. (Zygophyllaceae)” (priority 2014, dated 2017)",
  "key": {"Pseudomonas pseudomaliae": {"test_system": "Pseudomonas pseudomaliae", "conditions": "result in words; cited from earlier work"}, "brine shrimp": {"test_system": "brine shrimp", "conditions": "result in words; cited from earlier work"}, "3 cancer cell lines": {"test_system": "3 cancer cell lines", "assay": "cell proliferation assay against cancer cell lines", "format": "cell-based", "conditions": "result in words"}, "HIV-1 BaL": {"test_system": "HIV-1 BaL", "assay": "anti-HIV bioassay: HIV-1 p24 production in infected PHA-activated PBMCs (ELISA, day 7)", "format": "cell-based", "conditions": "PBMCs infected with HIV-1 BaL; result in words", "protocol": "Stocks of crude drug made from G. officinale L. were prepared in Dimethyl sulfoxide (DMSO) in a stock solution of 10 mg/ml. Dilutions from the stock were made and the final concentration of DMSO in the cultures was always <0.1% to avoid cell toxicity. Peripheral blood mononuclear cells (PBMCs) were separated from buffy coats of HIV-1 seronegative donors (New York Blood Center, NY) by density centrifugation over Ficoll-Hypaque (Sigma). Briefly, the buffy coat suspension was diluted 1:2 with phosphate-buffered saline solution (PBS). Then, 35 ml were layered onto 15 ml of Ficoll® Paque PLUS (GE Healthcare), a ready to use sterile medium for isolation of lymphocytes and were centrifuged by standard ficoll-paque gradient centrifugation according to manufacturer's protocol (GE Healthcare) for 25 min at 400×g. The white interphase containing the PBMCs was collected and washed three times with PBS. […] On day 7, HIV-1 p24 protein production in the culture supernatant was measured using a commercial ELISA kit (Coulter, Hialeah, Fla.) and cell viability using a colorimetric MTT kit (Roche). […] The quantity of formazan produced (absorbance at 490 nm) is directly proportional to the number of living cells. […] MTT conversion to formazan by mitochondrial dehydrogenase was assayed by optical density at 490 nm measured in an ELISA plate reader. […]"}},
  "data": [
    {"molecule": "guaianin N", "values": [
      {"measurement": "antibacterial activity against Pseudomonas pseudomaliae", "setting": "Pseudomonas pseudomaliae", "result": "antibacterial activity"},
      {"measurement": "brine shrimp toxicity", "setting": "brine shrimp", "result": "toxicity"}
    ]},
    {"molecule": "CC1(C)CC[C@]2(C(=O)O)CC[C@]3(C)C(=CC[C@@H]4[C@@]5(C)CC[C@H](O[C@@H]6OC[C@@H](O)[C@H](OC7O[C@H](CO)[C@H](O)[C@H](O)[C@H]7O)[C@H]6O)C(C)(C)[C@@H]5CC[C@]43C)[C@@H]2C1", "note": "(stereo partly shown) [HL-038]", "values": [
      {"measurement": "activity against 3 cancer cell lines", "setting": "3 cancer cell lines", "result": "moderate activity"},
      {"measurement": "Anti-HIV-1 activity", "setting": "HIV-1 BaL", "result": "moderate activity"}
    ]}
  ]
}
